Assay results reported in article PMC8252068, “Biochemical Investigation of the Interaction of pICln, RioK1 and COPR5 with the PRMT5–MEP50 Complex” (Chembiochem, 2021).
Like-named read-outs stand apart in the source and are kept apart here. Where a SMILES comes first, the peptide text is derived from it. The star is where a group is joined. FITC = O=C1OC2(c3ccc(O)cc3Oc3cc(O)ccc32)c2ccc(NC(=S)*)cc21; AEEA = NCCOCCOCC(=O)O

Legend:
TIM–MEP50 = target: T1, TIM–MEP50 (Homo sapiens, UniProt O14744+Q9BQA1); assay: Flow induced dispersion analysis (FIDA), TIM–MEP50; format: binding; conditions: technical triplicate
T1 construct: truncated PRMT5 protein (residues 1–292), corresponding to the TIM barrel domain, was either expressed alone or co‐expressed as a complex with MEP50; His-TRX with 3C cleavage site (N, cleaved yes); made in house; host or cells: HighFive insect cells (flashBAC baculovirus system)
T1 sequence (O14744 1-292): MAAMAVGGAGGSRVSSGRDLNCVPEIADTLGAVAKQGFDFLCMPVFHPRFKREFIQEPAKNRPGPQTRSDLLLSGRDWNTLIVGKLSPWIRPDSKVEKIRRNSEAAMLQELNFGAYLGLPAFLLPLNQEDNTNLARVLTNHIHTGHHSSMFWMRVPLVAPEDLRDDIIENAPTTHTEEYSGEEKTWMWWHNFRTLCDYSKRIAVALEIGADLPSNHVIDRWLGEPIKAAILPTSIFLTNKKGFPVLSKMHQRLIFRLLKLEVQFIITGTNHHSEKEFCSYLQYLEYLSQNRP
T1 sequence (Q9BQA1 whole entry partner, the tested form may be a part): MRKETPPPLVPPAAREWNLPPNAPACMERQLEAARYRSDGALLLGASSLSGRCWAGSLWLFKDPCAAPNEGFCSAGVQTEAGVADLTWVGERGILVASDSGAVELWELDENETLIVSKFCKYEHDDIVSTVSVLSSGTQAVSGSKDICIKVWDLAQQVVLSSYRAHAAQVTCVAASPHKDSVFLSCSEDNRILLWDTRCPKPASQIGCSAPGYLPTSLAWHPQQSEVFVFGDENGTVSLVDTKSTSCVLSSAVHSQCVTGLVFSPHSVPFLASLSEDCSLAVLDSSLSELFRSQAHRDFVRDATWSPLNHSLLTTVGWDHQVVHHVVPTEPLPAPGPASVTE
Experimental: (§1) Nucleodur C18 Gravity column, with a flow rate of 0.56 ml/min, and the samples obtained from the stability assay were tested using 125 mm x 3 mm, 5 μm Macherey-Nagel Nucleodur C4 Gravity at a flow rate of 1 ml/min, in both cases using elution system: 5% → 65% MeCN (0.1% TFA) in H2O (0.1% TFA) over 14 min. HRMS analyses were performed on a LTQ Orbitrap mass spectrometer (Thermo Fisher Scientific, USA) using electrospray ionization. Concentrations of PRMT5 -MEP50, TIM -MEP50 and TIM were measured with the Bradford assay, using Protein Assay Dye Reagent from Bio -Rad (Cat. #500-0006; Bio- […]

[1] = target: T2, TIM–MEP50 complex (PRMT5 residues 1–292 co-expressed with MEP50) (Homo sapiens, UniProt O14744+Q9BQA1); assay: Fluorescence polarisation direct binding assay, TIM–MEP50; conditions: 20-21 °C, n=3
T2 construct: truncated PRMT5 protein (residues 1–292), corresponding to the TIM barrel domain, was either expressed alone or co‐expressed as a complex with MEP50; His-TRX with 3C cleavage site (N, cleaved yes); made in house; host or cells: HighFive insect cells (flashBAC baculovirus system)
T2 sequence (O14744 1-292): as the sequence (O14744 1-292) above
T2 sequence (Q9BQA1 whole entry partner, the tested form may be a part): as the sequence (Q9BQA1 whole entry partner, the tested form may be a part) above
Experimental: (§2) All proteins were expressed at the Protein Chemistry Facility (PCF) based in the MPI Dortmund.
(§3) For expression of the proteins, all constructs were subcloned into pOPIN vectors.
(§4) Full-length human pICln, N-terminally tagged with 6His-TRX followed by the 3C cleavage site, and TIM barrel domain (1-292 aa) of human PRMT5, N-terminally tagged with 6His-SUMO, were expressed in BL21 CodonPlus (DE3) RIPL strain of Escherichia coli. Bacteria with the respective plasmids were cultured in Terrific Broth medium. Expression of TIM barrel was auto-induced, with incubation of the starter-culture (starting OD of ~0.05) at 35 °C for 2.5h, followed by an overnight incubation (20 -24h) at 25 °C. Expression of pICln was induced at OD ~0.6-0.8 using 0.3 mM IPTG and E. coli was incubated at 20 °C for 20h. Bacteria were harvested by centrifugation and lysed.
(§5) Expression of full-length human RioK1 tagged with 6NHis-3C and co-expression of full-length human PRMT5 (N-terminal 6His-MBP with 3C) with MEP50 (N-terminal 6His-TRX with 3C), and of TIM barrel (1-292 aa) with MEP50 (both N-terminally tagged with His-TRX with 3C cleavage site) was done using the Flash Bac Expression System (Oxford Expression Technologies, UK) with HighFive insect cells in Gibco Sf-900 III SFM medium. The cells were harvested by centrifugation and lysed.
(§6) All proteins were purified at the PCF (MPI Dortmund).
(§7) Protein purification was performed on HisTrap FF crude 5 ml Ni-based column, followed by the on-column treatment with 6His-tagged HRV-3C PreScission protease, or in case of the SUMO-tagged TIM barrel, with 6His-tagged SUMO protease. The cleaved proteins were then further purified using gel filtration chromatography with the HiLoad 26/60 Superdex 75 or 200 prep grade column. PRMT5 -MEP50, TIM-MEP50 and TIM barrel were stored in a buffer containing 50 mM HEPES, 250 mM NaCl, 1 mM TCEP with the pH adjusted to 8.0, whereas, pICln was stored in a buffer of 20 mM phosphate, 100 mM NaCl, 5 mM TCEP and pH of 7.5, whereas RioK1 was stored in a buffer of 50 mM Tris, 200 mM NaCl, 10% glycerol, 1 […]
(§8) Protein Labelling with Alexa 488
(§9) To a protein solution (ca. 1 mg/ml) in 0.2 M bicarbonate buffer with 1 mM TCEP at pH 8.3, was added 10 mM Alexa 488 NHS-ester in DMSO (8 equiv), and the mixture was kept on ice, in darkness, overnight. The protein was washed eight times with buffer (50 mM HEPES, 250 mM NaCl, 1 mM TCEP, 8.0 pH) using an Amicon® Ultra-0.5 mL spin filter. Protein concentration was then determined using the NanoDrop […]
(§10) Fluorescence Polarisation (FP)
(§11) The assay was performed in a buffer of 50 mM HEPES, 250 mM NaCl, 1 mM TCEP, 0.01% (v/v) Tween 20, pH 8.0, in black, 384 well-plates, with a total volume of 10 μl per well. The analysed, FITC labelled peptides, or Alexa488-labelled pICln or RioK1, were tested at a final concentration of 1 nM, and the appropriate unlabelled protein was titrated as two-fold dilution series. The plates were incubated at 20-21 °C for 30 min in case of FITC -labelled peptides or 1-2h in case of the Alexa488-labelled protein, and analysed on a plate reader using 485 nm excitation and 535 nm emission wavelength. The assay was performed in […]

[2] = target: T3, native PRMT5–MEP50 complex (Homo sapiens, UniProt O14744+Q9BQA1); assay: Fluorescence polarisation direct binding assay, full-length PRMT5–MEP50; conditions: 20-21 °C, n=3
T3 construct: Full‐length PRMT5–MEP50; 6His-MBP with 3C site (N, cleaved yes); made in house; host or cells: HighFive insect cells (flashBAC baculovirus system)
T3 sequence (O14744 whole entry): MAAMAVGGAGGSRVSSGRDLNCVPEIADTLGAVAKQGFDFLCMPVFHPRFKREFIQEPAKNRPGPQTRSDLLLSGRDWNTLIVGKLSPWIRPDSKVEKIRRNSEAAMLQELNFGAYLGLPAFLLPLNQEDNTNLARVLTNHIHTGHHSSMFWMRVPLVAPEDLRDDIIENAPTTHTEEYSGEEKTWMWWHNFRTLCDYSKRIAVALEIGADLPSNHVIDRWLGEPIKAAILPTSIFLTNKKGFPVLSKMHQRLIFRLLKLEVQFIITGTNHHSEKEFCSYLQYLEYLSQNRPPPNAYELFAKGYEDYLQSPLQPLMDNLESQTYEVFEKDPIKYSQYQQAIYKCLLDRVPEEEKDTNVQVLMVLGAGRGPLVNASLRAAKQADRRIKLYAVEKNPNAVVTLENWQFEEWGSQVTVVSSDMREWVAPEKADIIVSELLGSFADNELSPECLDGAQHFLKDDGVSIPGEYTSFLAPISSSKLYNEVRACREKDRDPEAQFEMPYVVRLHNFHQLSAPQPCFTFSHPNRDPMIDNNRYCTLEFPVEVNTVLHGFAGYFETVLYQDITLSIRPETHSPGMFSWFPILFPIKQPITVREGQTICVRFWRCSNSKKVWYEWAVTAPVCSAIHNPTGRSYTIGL
T3 sequence (Q9BQA1 whole entry partner): as the sequence (Q9BQA1 whole entry partner, the tested form may be a part) above
Source text: as §2
For expression of the proteins, all constructs were subcloned into pOPIN vectors. […]
as §5, §6, §7, §8, §9, §10, §11

PRMT5–MEP50 = target: T4, PRMT5–MEP50 (Homo sapiens, UniProt O14744+Q9BQA1); assay: Flow induced dispersion analysis (FIDA), PRMT5–MEP50; format: binding; conditions: technical triplicate
T4 construct: Full‐length PRMT5–MEP50; 6His-MBP with 3C site (N, cleaved yes); made in house; host or cells: HighFive insect cells (flashBAC baculovirus system)
T4 sequence (O14744 whole entry): as the sequence (O14744 whole entry) above
T4 sequence (Q9BQA1 whole entry partner): as the sequence (Q9BQA1 whole entry partner, the tested form may be a part) above
Experimental: as §1

[3] = target: T5, TIM barrel domain of PRMT5 (residues 1–292) (Homo sapiens, UniProt O14744); assay: Fluorescence polarisation direct binding assay, isolated TIM barrel
T5 construct: barrel domain (1-292 aa) of human PRMT5, N-terminally tagged with 6His-SUMO; 6His-SUMO (N, cleaved yes); made in house; host or cells: Escherichia coli BL21 CodonPlus (DE3) RIPL
T5 sequence (O14744 1-292): as the sequence (O14744 1-292) above
Experimental: as §2, §3
as §4, with “lysed. […]” for “lysed.”
To a protein solution (ca. 1 mg/ml) in 0.2 M bicarbonate buffer with 1 mM TCEP at pH 8.3, was added 10 mM Alexa 488 NHS-ester in DMSO (8 equiv), and the mixture was kept on ice, in darkness, overnight. […] Protein concentration was then determined using the NanoDrop […]
as §10
as §11, with “wavelength.” for “wavelength. The assay was performed in”

[4] = FP direct binding, FITC peptide 1 nM, protein titrated, HEPES buffer pH 8.0, 30 min, n.b. = no binding, read-out: K D value, TIM–MEP50
[5] = FP using the native PRMT5–MEP50 complex, FITC peptide 1 nM, pH 8.0, 30 min, n.b. = no binding, read-out: K D (Table 2, peptides 1–16)

Kd [3] [nM]	Kd [1, 4] [nM]	Kd [2, 5] [nM]	Molecule	further results
–	–	–	pICln-Alexa488: full-length human pICln labelled with the fluorescent dye Alexa488	Kd (TIM–MEP50; Supplement Table S4, indicator 10 nM, 25 °C, read-out: Affinity constant, TIM-MEP50 (Table S4, FIDA)): 64.1 nM; Kd (TIM–MEP50; indicator (Alexa488-labelled protein) 10 nM, HEPES buffer pH 8.0, 0.01% Tween 20, 25 °C, read-out: K D for TIM–MEP50 (FIDA)): 64.1 nM; Kd ([1]; FP, Alexa488-labelled protein 1 nM, unlabelled complex titrated, pH 8.0, 1-2h, read-out: K D of Alexa488-labelled adaptor protein for TIM–MEP50 (FP)): 4.1 ± 0.6 nM; Kd ([2]; FP, Alexa488-labelled protein 1 nM, unlabelled complex titrated, pH 8.0, 1-2h, read-out: K D of Alexa488-labelled adaptor protein for PRMT5–MEP50 (FP)): 9.1 ± 1.5 nM; Kd (PRMT5–MEP50; Supplement Table S4, indicator 10 nM, 25 °C, read-out: Affinity constant, PRMT5-MEP50 (Table S4, FIDA)): 39.3 nM; Kd (PRMT5–MEP50; indicator (Alexa488-labelled protein) 10 nM, HEPES buffer pH 8.0, 0.01% Tween 20, 25 °C, read-out: K D for PRMT5–MEP50 (FIDA)): 39.3 nM
5800 ± 110	2100 ± 150	1140 ± 38	CC(C)[C@H](NC(=O)[C@@H](NC(=O)[C@@H]1CCCN1C(=O)[C@@H](NC(=O)COCCOCCNC(=S)Nc1ccc2c(c1)C(=O)OC21c2ccc(O)cc2Oc2cc(O)ccc21)[C@@H](C)O)[C@@H](C)O)C(=O)N[C@@H](C)C(=O)NCC(=O)N[C@@H](CCC(N)=O)C(=O)N[C@@H](Cc1ccccc1)C(=O)N[C@@H](CCC(=O)O)C(=O)N[C@@H](CC(=O)O)C(=O)N[C@@H](C)C(=O)N[C@@H](CC(=O)O)C(N)=O [compound 2] ({FITC-AEEA}-TPTVAGQFEDAD-NH2)	–
2400 ± 320	460	549 ± 119	CSCC[C@H](NC(=O)COCCOCCNC(=S)Nc1ccc2c(c1)C(=O)OC21c2ccc(O)cc2Oc2cc(O)ccc21)C(=O)N[C@H](C(=O)N[C@@H](Cc1ccccc1)C(=O)N[C@@H](CCC(=O)O)C(=O)N[C@H](C(=O)NCC(=O)N[C@@H](CCC(N)=O)C(=O)N[C@@H](Cc1ccccc1)C(=O)N[C@@H](CC(=O)O)C(=O)N[C@@H](CC(=O)O)C(=O)N[C@@H](C)C(=O)N[C@@H](CCC(=O)O)C(=O)N[C@@H](CC(=O)O)C(N)=O)[C@@H](C)O)C(C)C [compound 3] ({FITC-AEEA}-MVFETGQFDDAED-NH2)	–
2800 ± 70	840 ± 150	522 ± 45	CC(C)[C@H](NC(=O)[C@H](CCCNC(=N)N)NC(=O)[C@H](CO)NC(=O)COCCOCCNC(=S)Nc1ccc2c(c1)C(=O)OC21c2ccc(O)cc2Oc2cc(O)ccc21)C(=O)N[C@H](C(=O)N1CCC[C@H]1C(=O)NCC(=O)N[C@@H](CCC(N)=O)C(=O)N[C@@H](Cc1ccccc1)C(=O)N[C@@H](CC(=O)O)C(=O)N[C@@H](CC(=O)O)C(=O)N[C@@H](C)C(=O)N[C@@H](CC(=O)O)C(N)=O)C(C)C [compound 1] ({FITC-AEEA}-SRVVPGQFDDAD-NH2)	–
–	–	–	Fitc‐O2Oc‐PTVAGQF‐NH2 [compound 4, DAB1 derived, fluorescently labelled linear peptide]	K D value, TIM–MEP50 ([1]; FP direct binding, FITC peptide 1 nM, protein titrated, HEPES buffer pH 8.0, 30 min, n.b. = no binding): did not have affinity and n.b.; K D value, Full‐length PRMT5–MEP50 ([2]; FP direct binding, FITC peptide 1 nM, protein titrated two-fold, 50 mM HEPES, 250 mM NaCl, 1 mM TCEP, 0.01% Tween 20, pH 8.0, 30 min, n.b. = no binding): did not have affinity and n.b.; K D (Table 2, peptides 1–16) ([2]; FP using the native PRMT5–MEP50 complex, FITC peptide 1 nM, pH 8.0, 30 min, n.b. = no binding): n.b.
